Source: patent US8835124B2, “Method for treating cancer with agents that bind phosphorylated CDC27” (The Nemours Foundation, priority 2011, dated 2014)

System: DAOY cells
Assay: LDH release cytotoxicity assay
Format: cell-based, human
Settings: DAOY cells treated for 16 hours
Protocol: Lactate dehydrogenase (LDH) levels as a measure of cell death were determined using the Non-radioactive Cytotoxicity kit (Promega, Madison, Wis.) according to manufacturer's instructions. […] Cell debris was removed by centrifugation. Viable cell LDH was collected from cells lysed by freezing for 15 minutes at −70° C. followed by thawing at 37° C. The medium was collected and cleared from cell debris by centrifugation. The relative release of LDH was determined as the ratio of released LDH versus total LDH from viable cells.
Data represent mean±SEM of three independent experiments.

## COc1cc(C=CC(C)=O)ccc1O [half-curcumin, 4-(4-hydroxy-3-methoxyphenyl)-3-buten-2-one]
  cell death (LDH release): failed to induce cell death
